{
  "source": "patent US20110195845A1",
  "about": "“Constructs for Expressing Herbicide Tolerance Genes, Related Plants, and Related Trait Combinations” (Dow AgroSciences LLC, priority 2008, published 2011)",
  "key": {"[1]": {"system": "Escherichia coli BL21-Star (DE3) with CsVMV promoter//PAT (3037)", "assay": "Viral promoter driven complementation on glufosinate, plasmid 3037; note: key: ++++ = Heavy Lawn Growth; +++ = Lawn Growth; ++ = Lots of Distinct Colonies; + = Scattered Colony Growth", "format": "cell-based", "settings": "48 hrs @37 C", "protocol": "Plasmid constructs in which the DSM-2 (v2) and PAT gene coding sequences were expressed, under either the viral promoters CsVMV or the plant promoter AtUbi10, were assayed for complementation on minimal media containing glufosinate. The plasmids 3778 (Rb7 MARv3//AtUbi10 promoter//DSM-2 (v2)//Atu Orf 1 3′UTR), 3779 (Rb7 MARv3//AtUbi10 promoter//PAT//Atu Orf 1 3′UTR), 3264 (CsVMV promoter//DSM-2//Atu Orf 24 3′UTR), 3037 (CsVMV promoter//PAT//Atu Orf 25/26 3′UTR), and 770 (control plasmid containing CsVMV promoter//GUS v3//Atu Orf 24 3′UTR) were transformed into Escherichia coli BL21-Star (DE3) and grown up in complex media. Five microliters of the cultures were plated on minimal media containing increasing concentrations of Glufosinate and incubated at 37° C. for 48 hours."}, "[2]": {"system": "E. coli DH5α", "assay": "Bacterial strain response to glufosinate on minimal media", "format": "cell-based, Escherichia coli", "parameters": "key: +++ = Heavy Lawn Growth; ++ = Light lawn growth; + = patchy lawn growth; −− = No Growth", "settings": "24 hrs @ 37 C", "protocol": "(§1) Selected cell lines of Escherichia coli and Agrobacterium tumefaciens were inoculated on minimal media containing incrementally increasing concentrations of Glufosinate (BASTA). The cell lines; BL21-Star (DE3), Top10, DH5α, Agrobacterium tumefaciens C58, and Agrobacterium tumefaciens LBA4404s were initially grown up on complex media. The Escherichia coli strains were grown in LB and the Agrobacterium tumefaciens strains were grown in YEP. Five microliters of bacterial culture was inoculated and dispersed evenly onto minimal media plates containing various concentrations of glufosinate. The concentrations consisted of 0 μg/ml, 250 μg/ml, 500 μg/ml, 1000 μg/ml, 2000 μg/ml, and 4000 μg/ml of BASTA. In addition, the bacterial strains were inoculated onto a plate of complex media as a control—Agrobacterium tumefaciens strains were inoculated on YEP agar plates, and Escherichia coli strains were inoculated on LB agar plates. The plates containing the Escherichia coli strains were incubated at 37° C. for 24 hours. The plates containing the Agrobacterium tumefaciens strains were incubate at 25° C. for 48 hours. […] Table 7 illustrates the capability of the various strains to grow on minimal media containing glufosinate."}, "[3]": {"system": "E. coli Top10", "assay": "Bacterial strain response to glufosinate on minimal media", "format": "cell-based, Escherichia coli", "parameters": "key: +++ = Heavy Lawn Growth; ++ = Light lawn growth; + = patchy lawn growth; −− = No Growth", "settings": "24 hrs @ 37 C", "protocol": "as §1"}, "[4]": {"system": "PAT (pDAS1942) corn", "assay": "T2 corn response to glufosinate applied postemergence", "format": "in vivo", "settings": "14DAT"}, "[5]": {"system": "Agrobacterium tumefaciens LBA4404s", "assay": "Bacterial strain response to glufosinate on minimal media", "format": "cell-based", "parameters": "key: +++ = Heavy Lawn Growth; ++ = Light lawn growth; + = patchy lawn growth; −− = No Growth", "settings": "48 hrs @ 25 C", "protocol": "as §1"}, "[6]": {"system": "T0 DSM-2 (v2)-transformed corn plants", "assay": "Leaf paint with glufosinate in T0 corn", "format": "in vivo", "settings": "for % Injury: 2 WAT", "protocol": "(§2) T0 DSM-2 (v2) plants were painted with a rundown of glufosinate herbicide. Four siblings from each of 15 T0 events were tested, and 4 leaves on each individual plant received a rundown of glufosinate at approximately V8 stage. Rundown treatments were randomized for each rate allowing for variation of treatment location on individual leaves. For corn, 0.25% v/v glufosinate is the minimum effective dose to distinguish sensitive plants from ones with meaningful levels of resistance. Elevated rates were also applied to determine relative levels of resistance (0.5%, 1.0%, and 2.0% v/v). Glufosinate treatments were applied using cotton tipped applicators to a treatment area of approximately 2.5 cm in diameter.\n(§3) Table 11 compares the response of DSM-2 (v2) and control genes to impart glufosinate resistance to corn T0 transformants. Response is presented in terms of % visual injury 2 WAT. […] Since each T0 is an independent transformation event, one can expect significant variation of individual T0 responses within a given rate. An arithmetic mean and standard deviation is presented for each treatment. Untransformed wildtype corn served as a glufosinate sensitive control. The DSM-2 (v2) gene imparted herbicide resistance to individual T0 corn plants. Within a given treatment, the level of plant response varied greatly and can be attributed to the fact each plant represents an independent transformation event."}, "[7]": {"system": "T0 PAT-transformed corn plants", "assay": "Leaf paint with glufosinate in T0 corn", "format": "in vivo", "settings": "2 WAT", "protocol": "as §2, §3"}, "[8]": {"system": "Arabidopsis seed (wildtype, PAT, DSM-2 (v2))", "assay": "DSM-2 (v2) as selectable marker: survival of sown seed after glufosinate spray", "format": "in vivo, Arabidopsis thaliana", "protocol": "The ability to use DSM-2 (v2) as a selectable marker using glufosinate as the selection agent was analyzed with Arabidopsis transformed as described above. Approximately 100 T1 generation Arabidopsis seed (100-150 seeds) containing for DSM-2 (v2) or 2 mg homozygous T5 plants containing PAT were spiked into approximately 10,000 wildtype (sensitive) seed. Each tray of plants received two application timings of 280 g ai/ha glufosinate at the following treatment times: 7 DAP and 11 DAP. Treatments were applied with a DeVilbiss spray tip as previously described. Another 2 mg T1 generation Arabidopsis seed from each was sown and not sprayed as a comparison count. Plants were identified as Resistant or Sensitive 17 DAP."}, "[9]": {"settings": "560 g ai/ha glufosinate postemergence"}, "[10]": {"settings": "2240 g ai/ha glufosinate postemergence"}, "[11]": {"settings": "0.25% v/v glufosinate leaf paint"}, "[12]": {"settings": "0.5% v/v glufosinate leaf paint"}},
  "data": [
    {"smiles": "CP(=O)(O)CCC(N)C(=O)O", "note": "(stereo not drawn) [glufosinate]", "values": [
      {"measurement": "bacterial growth on minimal media", "setting": "[1]; 250 μg/ml BASTA", "value": "++"},
      {"measurement": "bacterial growth on minimal media", "setting": "[1]; 500 μg/ml BASTA", "value": "+"},
      {"measurement": "bacterial growth on minimal media", "setting": "[2]; 250 μg/ml BASTA", "value": "+++"},
      {"measurement": "bacterial growth on minimal media", "setting": "[2]; 500 μg/ml BASTA", "value": "+++"},
      {"measurement": "bacterial growth on minimal media", "setting": "[2]; 1000 μg/ml BASTA", "value": "+++"},
      {"measurement": "bacterial growth on minimal media", "setting": "[2]; 2000 μg/ml BASTA", "value": "+++"},
      {"measurement": "bacterial growth on minimal media", "setting": "[2]; 4000 μg/ml BASTA", "value": "−−"},
      {"measurement": "bacterial growth on minimal media", "setting": "[3]; 250 μg/ml BASTA", "value": "+++"},
      {"measurement": "bacterial growth on minimal media", "setting": "[3]; 500 μg/ml BASTA", "value": "+++"},
      {"measurement": "bacterial growth on minimal media", "setting": "[3]; 1000 μg/ml BASTA", "value": "+++"},
      {"measurement": "bacterial growth on minimal media", "setting": "[3]; 2000 μg/ml BASTA", "value": "+"},
      {"measurement": "bacterial growth on minimal media", "setting": "[3]; 4000 μg/ml BASTA", "value": "−−"},
      {"measurement": "% Injury Ave", "setting": "[4]; [9]", "value": 6, "unit": "%"},
      {"measurement": "individuals with % Injury <20%", "setting": "[4]; [9]", "value": 4},
      {"measurement": "individuals with % Injury >40%", "setting": "[4]; 1120 g ai/ha glufosinate postemergence", "value": 3},
      {"measurement": "% Injury Ave", "setting": "[4]; [10]", "value": 25, "unit": "%"},
      {"measurement": "individuals with % Injury 20-40%", "setting": "[4]; [10]", "value": 1},
      {"measurement": "individuals with % Injury <20%", "setting": "[4]; [10]", "value": 2},
      {"measurement": "individuals with % Injury >40%", "setting": "[4]; [10]", "value": 1},
      {"measurement": "individuals with % Injury <20%", "setting": "[4]; 4480 g ai/ha glufosinate postemergence", "value": 0},
      {"measurement": "bacterial growth on minimal media", "setting": "[5]; 250 μg/ml BASTA", "value": "+++"},
      {"measurement": "bacterial growth on minimal media", "setting": "[5]; 500 μg/ml BASTA", "value": "++"},
      {"measurement": "bacterial growth on minimal media", "setting": "[5]; 1000 μg/ml BASTA", "value": "++"},
      {"measurement": "bacterial growth on minimal media", "setting": "[5]; 2000 μg/ml BASTA", "value": "+"},
      {"measurement": "bacterial growth on minimal media", "setting": "[5]; 4000 μg/ml BASTA", "value": "−−"},
      {"measurement": "% Injury", "setting": "[6]; [11]", "value": 0, "unit": "%"},
      {"measurement": "% Injury", "setting": "[6]; [12]", "value": 1, "unit": "%"},
      {"measurement": "% Injury", "setting": "[6]; 1% v/v glufosinate leaf paint", "value": 2, "unit": "%"},
      {"measurement": "% Injury", "setting": "[6]; 2% v/v glufosinate leaf paint", "value": 4, "unit": "%"},
      {"measurement": "performance compared to PAT-transformed plants", "setting": "[6]; up to 2% v/v glufosinate", "value": "performs better overall than PAT-transformed plants"},
      {"measurement": "% Injury", "setting": "[7]; [11]", "value": 1, "unit": "%"},
      {"measurement": "% Injury", "setting": "[7]; [12]", "value": 3, "unit": "%"},
      {"measurement": "% Injury", "setting": "[7]; 1% v/v glufosinate leaf paint", "value": 6, "unit": "%"},
      {"measurement": "% Injury", "setting": "[7]; 2% v/v glufosinate leaf paint", "value": 9, "unit": "%"},
      {"measurement": "Number of Surviving Plants Following glufosinate Spray", "setting": "[8]; 280 g ai/ha glufosinate 7 DAP and 11 DAP, Trt 1: 200 mg WT planted", "value": 0},
      {"measurement": "Number of Surviving Plants Following glufosinate Spray", "setting": "[8]; 280 g ai/ha glufosinate, Trt 2: 2 mg PAT planted", "value": 154},
      {"measurement": "Number of Surviving Plants Following glufosinate Spray", "setting": "[8]; 280 g ai/ha glufosinate, Trt 3: 200 mg WT + 2 mg PAT planted", "value": 121},
      {"measurement": "Number of Surviving Plants Following glufosinate Spray", "setting": "[8]; 280 g ai/ha glufosinate, Trt 4: 2 mg DSM-2 (v2) planted", "value": 117},
      {"measurement": "Number of Surviving Plants Following glufosinate Spray", "setting": "[8]; 280 g ai/ha glufosinate, Trt 5: 200 mg WT + 2 mg DSM-2 (v2) planted", "value": 121}
    ]}
  ]
}
